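Test compounds were applied to cells in 96-well plates for 48 hours at 5 doses. At the GI50, growth is halved. TGI marks complete inhibition of growth.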
system: PC-3 prostate; test: NCI-60 cell line screen, 48 h

| SMILES | GI50 | TGI |
| --- | --- | --- |
| COc1cc(/C=C/[N+](=O)[O-])cc(Br)c1OC | 3500 nM | 13.2 µM |
| CN(CC(N)=O)C(=O)N(CCCl)N=O | – | > 100 µM |
| c1ccc2c3c([nH]c2c1)C1CCCN1CC3 (centres undefined) | – | > 10 µM |
| CC(C)=CCC/C(C)=C/CC/C(C)=C/CC/C=C(\C)CC/C=C(\C)CCC(=O)Nc1ccn(C2OC(CO)C(O)C2(F)F)c(=O)n1 (centres undefined) | 1190 nM | 20.5 µM |
| COc1ccc2c(c1)OC1=C(C(=O)OC1)C2c1cc(OC)c2c(c1)OCO2 (centres undefined) | 40.3 nM | > 100 µM |
| CCn1c2ccccc2c2cc(/C=C(/C#N)C(N)=O)ccc21 | 21600 nM | > 100 µM |
| COc1ccc(C(=O)N2c3ccccc3Sc3ccccc32)c(OC)c1 | 430 nM | > 100 µM |
| CN1CCN(CC(O)COc2c(Br)c(Br)c(Br)c3c2OC(C)(C)C3)CC1 (centres undefined) | 5060 nM | 21.1 µM |
| CCN1C(=O)N(CC)C2C1NN=c1s/c(=C3\C(=O)N(CCc4ccccc4)c4ccccc43)c(=O)n12 (centres undefined) | 415 nM | > 21.8 µM |
| N#CN1CC[C@H](C(=O)Nc2ncc(-c3ccncc3)s2)C1 | 58.2 nM | 12.7 µM |
| Cn1cc(-c2nonc2-c2cn(C)c3ccccc23)c2ccccc21 | 1420 nM | > 100 µM |
| CN(CCCCCl)P(=O)(OCCS(=O)(=O)CC(NC(=O)CCC(N)C(=O)O)C(=O)NC(C(=O)O)c1ccccc1)OCC1OC(n2cc(F)c(=O)[nH]c2=O)CC1O (centres undefined) | 882 nM | > 36.1 µM |
| CCN(CCO)CC(C)Nc1ccc([N+](=O)[O-])c2sc3ccccc3c(=O)c12 (centres undefined) | 1330 nM | 4.55 µM |
| COC(=O)c1nc(-c2ccccc2)oc1S(=O)(=O)n1nc(C)cc1N | 18300 nM | 33.5 µM |
| CCCCCn1sc(=O)n(Cc2ccc(CNC(=O)OCc3ccc4cccc(O)c4n3)cc2)c1=O | 1220 nM | 2.76 µM |
| CCCCn1c(=O)c2c(nc3n2CCCN3CCc2ccc(OCC(=O)NCCN(CC)CC)cc2)n(CCCC)c1=O | 1190 nM | 5.37 µM |

system: SK-OV-3 ovarian; test: NCI-60 cell line screen, 48 h

| SMILES | GI50 | TGI |
| --- | --- | --- |
| COc1cc(/C=C/[N+](=O)[O-])cc(Br)c1OC | 13.4 µM | 26.5 µM |
| CN(CC(N)=O)C(=O)N(CCCl)N=O | – | > 100 µM |
| c1ccc2c3c([nH]c2c1)C1CCCN1CC3 (centres undefined) | – | > 10 µM |
| CC(C)=CCC/C(C)=C/CC/C(C)=C/CC/C=C(\C)CC/C=C(\C)CCC(=O)Nc1ccn(C2OC(CO)C(O)C2(F)F)c(=O)n1 (centres undefined) | 0.0644 µM | 13.8 µM |
| COc1ccc2c(c1)OC1=C(C(=O)OC1)C2c1cc(OC)c2c(c1)OCO2 (centres undefined) | 0.0336 µM | – |
| CCn1c2ccccc2c2cc(/C=C(/C#N)C(N)=O)ccc21 | 21.8 µM | > 78.1 µM |
| COc1ccc(C(=O)N2c3ccccc3Sc3ccccc32)c(OC)c1 | 0.715 µM | > 100 µM |
| CN1CCN(CC(O)COc2c(Br)c(Br)c(Br)c3c2OC(C)(C)C3)CC1 (centres undefined) | 18.4 µM | 38.4 µM |
| CCN1C(=O)N(CC)C2C1NN=c1s/c(=C3\C(=O)N(CCc4ccccc4)c4ccccc43)c(=O)n12 (centres undefined) | 0.542 µM | 5.77 µM |
| N#CN1CC[C@H](C(=O)Nc2ncc(-c3ccncc3)s2)C1 | 1.15 µM | > 30.9 µM |
| Cn1cc(-c2nonc2-c2cn(C)c3ccccc23)c2ccccc21 | 1.28 µM | > 100 µM |
| CN(CCCCCl)P(=O)(OCCS(=O)(=O)CC(NC(=O)CCC(N)C(=O)O)C(=O)NC(C(=O)O)c1ccccc1)OCC1OC(n2cc(F)c(=O)[nH]c2=O)CC1O (centres undefined) | 41.3 µM | > 100 µM |
| CCN(CCO)CC(C)Nc1ccc([N+](=O)[O-])c2sc3ccccc3c(=O)c12 (centres undefined) | 2.53 µM | 14 µM |
| COC(=O)c1nc(-c2ccccc2)oc1S(=O)(=O)n1nc(C)cc1N | 45.5 µM | > 100 µM |
| CCCCCn1sc(=O)n(Cc2ccc(CNC(=O)OCc3ccc4cccc(O)c4n3)cc2)c1=O | 4.58 µM | 18.4 µM |
| CCCCn1c(=O)c2c(nc3n2CCCN3CCc2ccc(OCC(=O)NCCN(CC)CC)cc2)n(CCCC)c1=O | 5.93 µM | 12.6 µM |

system: SNB-75 CNS; test: NCI-60 cell line screen, 48 h

| SMILES | GI50 | TGI |
| --- | --- | --- |
| COc1cc(/C=C/[N+](=O)[O-])cc(Br)c1OC | 1850 nM | 5 µM |
| CN(CC(N)=O)C(=O)N(CCCl)N=O | – | > 100 µM |
| c1ccc2c3c([nH]c2c1)C1CCCN1CC3 (centres undefined) | – | > 10 µM |
| CC(C)=CCC/C(C)=C/CC/C(C)=C/CC/C=C(\C)CC/C=C(\C)CCC(=O)Nc1ccn(C2OC(CO)C(O)C2(F)F)c(=O)n1 (centres undefined) | 3000 nM | 23.3 µM |
| COc1ccc2c(c1)OC1=C(C(=O)OC1)C2c1cc(OC)c2c(c1)OCO2 (centres undefined) | 29.7 nM | > 100 µM |
| CCn1c2ccccc2c2cc(/C=C(/C#N)C(N)=O)ccc21 | 16100 nM | 44.1 µM |
| COc1ccc(C(=O)N2c3ccccc3Sc3ccccc32)c(OC)c1 | 209 nM | > 100 µM |
| CN1CCN(CC(O)COc2c(Br)c(Br)c(Br)c3c2OC(C)(C)C3)CC1 (centres undefined) | 7790 nM | 27 µM |
| CCN1C(=O)N(CC)C2C1NN=c1s/c(=C3\C(=O)N(CCc4ccccc4)c4ccccc43)c(=O)n12 (centres undefined) | 289 nM | 2.09 µM |
| N#CN1CC[C@H](C(=O)Nc2ncc(-c3ccncc3)s2)C1 | < 14.8 nM | 0.53 µM |
| Cn1cc(-c2nonc2-c2cn(C)c3ccccc23)c2ccccc21 | 176 nM | 0.842 µM |
| CN(CCCCCl)P(=O)(OCCS(=O)(=O)CC(NC(=O)CCC(N)C(=O)O)C(=O)NC(C(=O)O)c1ccccc1)OCC1OC(n2cc(F)c(=O)[nH]c2=O)CC1O (centres undefined) | 14500 nM | > 100 µM |
| CCN(CCO)CC(C)Nc1ccc([N+](=O)[O-])c2sc3ccccc3c(=O)c12 (centres undefined) | 1840 nM | 12.6 µM |
| COC(=O)c1nc(-c2ccccc2)oc1S(=O)(=O)n1nc(C)cc1N | 13200 nM | 26.6 µM |
| CCCCCn1sc(=O)n(Cc2ccc(CNC(=O)OCc3ccc4cccc(O)c4n3)cc2)c1=O | 1140 nM | 4.52 µM |
| CCCCn1c(=O)c2c(nc3n2CCCN3CCc2ccc(OCC(=O)NCCN(CC)CC)cc2)n(CCCC)c1=O | 1930 nM | 10 µM |

system: U251 CNS; test: NCI-60 cell line screen, 48 h

| SMILES | GI50 | TGI |
| --- | --- | --- |
| COc1cc(/C=C/[N+](=O)[O-])cc(Br)c1OC | 1770 nM | 3.75 µM |
| CN(CC(N)=O)C(=O)N(CCCl)N=O | – | > 100 µM |
| c1ccc2c3c([nH]c2c1)C1CCCN1CC3 (centres undefined) | – | > 10 µM |
| CC(C)=CCC/C(C)=C/CC/C(C)=C/CC/C=C(\C)CC/C=C(\C)CCC(=O)Nc1ccn(C2OC(CO)C(O)C2(F)F)c(=O)n1 (centres undefined) | 88.4 nM | 16.1 µM |
| COc1ccc2c(c1)OC1=C(C(=O)OC1)C2c1cc(OC)c2c(c1)OCO2 (centres undefined) | 42.9 nM | > 100 µM |
| CCn1c2ccccc2c2cc(/C=C(/C#N)C(N)=O)ccc21 | 5450 nM | > 100 µM |
| COc1ccc(C(=O)N2c3ccccc3Sc3ccccc32)c(OC)c1 | 615 nM | > 100 µM |
| CN1CCN(CC(O)COc2c(Br)c(Br)c(Br)c3c2OC(C)(C)C3)CC1 (centres undefined) | 3560 nM | 12.9 µM |
| CCN1C(=O)N(CC)C2C1NN=c1s/c(=C3\C(=O)N(CCc4ccccc4)c4ccccc43)c(=O)n12 (centres undefined) | 413 nM | 15.6 µM |
| N#CN1CC[C@H](C(=O)Nc2ncc(-c3ccncc3)s2)C1 | 85.3 nM | 53.5 µM |
| Cn1cc(-c2nonc2-c2cn(C)c3ccccc23)c2ccccc21 | 689 nM | > 100 µM |
| CN(CCCCCl)P(=O)(OCCS(=O)(=O)CC(NC(=O)CCC(N)C(=O)O)C(=O)NC(C(=O)O)c1ccccc1)OCC1OC(n2cc(F)c(=O)[nH]c2=O)CC1O (centres undefined) | < 17.1 nM | > 41.6 µM |
| CCN(CCO)CC(C)Nc1ccc([N+](=O)[O-])c2sc3ccccc3c(=O)c12 (centres undefined) | 716 nM | 3.35 µM |
| COC(=O)c1nc(-c2ccccc2)oc1S(=O)(=O)n1nc(C)cc1N | 16500 nM | 30.8 µM |
| CCCCCn1sc(=O)n(Cc2ccc(CNC(=O)OCc3ccc4cccc(O)c4n3)cc2)c1=O | 1770 nM | 3.45 µM |
| CCCCn1c(=O)c2c(nc3n2CCCN3CCc2ccc(OCC(=O)NCCN(CC)CC)cc2)n(CCCC)c1=O | 2140 nM | 8.1 µM |

system: UO-31 renal; test: NCI-60 cell line screen, 48 h

| SMILES | GI50 | TGI |
| --- | --- | --- |
| COc1cc(/C=C/[N+](=O)[O-])cc(Br)c1OC | 1860 nM | 3.49 µM |
| CN(CC(N)=O)C(=O)N(CCCl)N=O | – | > 100 µM |
| c1ccc2c3c([nH]c2c1)C1CCCN1CC3 (centres undefined) | – | > 10 µM |
| CC(C)=CCC/C(C)=C/CC/C(C)=C/CC/C=C(\C)CC/C=C(\C)CCC(=O)Nc1ccn(C2OC(CO)C(O)C2(F)F)c(=O)n1 (centres undefined) | 50.1 nM | 14.7 µM |
| COc1ccc2c(c1)OC1=C(C(=O)OC1)C2c1cc(OC)c2c(c1)OCO2 (centres undefined) | 689 nM | > 100 µM |
| CCn1c2ccccc2c2cc(/C=C(/C#N)C(N)=O)ccc21 | 11700 nM | > 29.6 µM |
| COc1ccc(C(=O)N2c3ccccc3Sc3ccccc32)c(OC)c1 | 739 nM | > 100 µM |
| CN1CCN(CC(O)COc2c(Br)c(Br)c(Br)c3c2OC(C)(C)C3)CC1 (centres undefined) | 9240 nM | 31 µM |
| CCN1C(=O)N(CC)C2C1NN=c1s/c(=C3\C(=O)N(CCc4ccccc4)c4ccccc43)c(=O)n12 (centres undefined) | 1030 nM | > 35.2 µM |
| N#CN1CC[C@H](C(=O)Nc2ncc(-c3ccncc3)s2)C1 | < 18.8 nM | 0.758 µM |
| Cn1cc(-c2nonc2-c2cn(C)c3ccccc23)c2ccccc21 | 972 nM | > 100 µM |
| CN(CCCCCl)P(=O)(OCCS(=O)(=O)CC(NC(=O)CCC(N)C(=O)O)C(=O)NC(C(=O)O)c1ccccc1)OCC1OC(n2cc(F)c(=O)[nH]c2=O)CC1O (centres undefined) | 97.3 nM | > 81.2 µM |
| CCN(CCO)CC(C)Nc1ccc([N+](=O)[O-])c2sc3ccccc3c(=O)c12 (centres undefined) | 278 nM | 1.65 µM |
| COC(=O)c1nc(-c2ccccc2)oc1S(=O)(=O)n1nc(C)cc1N | 8590 nM | 21.1 µM |
| CCCCCn1sc(=O)n(Cc2ccc(CNC(=O)OCc3ccc4cccc(O)c4n3)cc2)c1=O | 1070 nM | 2.25 µM |
| CCCCn1c(=O)c2c(nc3n2CCCN3CCc2ccc(OCC(=O)NCCN(CC)CC)cc2)n(CCCC)c1=O | 1510 nM | 7.86 µM |
